Earlier results as cited in patent US20230201308A1, “TREATMENT OF CORONAVIRUS INFECTION WITH […]” (Eiger Biopharmaceuticals, Inc., priority 2020, published 2023).

Test system: SARS-CoV-2
Conditions: BLAZE trial; placebo group 15%; cited from earlier work

## bamlanivimab
  hospitalization in the treatment group: placebo group to 4% in the treatment group. Despite the more potent antiviral effect
